# Where two headings read alike, the source gives them in different places.
# Experiments:
# [1] = system: human NSCLC lines; assay: Cytotox assays: chemotherapy dose response curves with or without EZH2 inhibitor, 4 days; type: cell-based; settings: for IC50: various NSCLC cell lines, 4 days, read-out: etoposide IC50
# Experimental: Cell lines were dissociated, counted and plated at 5000 cells per well in flat bottom opaque tissue culture treated 96 well plates (CytoOne). Edge wells were filled with PBS. The following day, 2× drug diluted in media was added to each well such that the well then contained 100 ul media with 1× drug concentration. After 4 days, Cell Titer Glo™ (Promega) was added and luminescence was read on a BioTec plate reader to determine relative cell number in each well. Data were averaged for triplicate or quadruplicate technical replicates, normalized to the untreated wells and input into GraphPad Prism software to extrapolate IC50.
# Cell lines were dissociated, counted and plated at 5000 cells per well in flat bottom opaque tissue culture treated 96 well plates (CytoOne). Edge wells were filled with PBS. The following day, 2× drug diluted in media was added to each well such that the well then contained 100 ul media with 1× drug concentration at the following doses: etoposide; 0, 0.1, 1, 3, 5, 7, 10, 50, 100, 500 μM, cisplatin; 0, 0.1, 1, 5, 10, 30, 70, 100, 500 μM, or doxorubicin; 0, 0.01, 0.1, 0.5, 1, 3, 5, 7, 10, 50 μM. […] Data were averaged for triplicate or quadruplicate technical replicates and normalized to the untreated wells. Results from three or four independent biological replicate experiments were input into […] PRISM™ software to extrapolate IC50 and s.e.m. of IC50 for a given cell line.
# [2] = system: EZH2 and H3K27me3; assay: Western Blot for EZH2 and H3K27me3 on whole cell extracts; type: cell-based, human; settings: 10 μM GSK126, 7 days in culture
# Experimental: For Western blotting, 25 μg of protein extract per sample was denatured with heat and reducing agents, separated on a 4-12% acrylimide gel and transferred to nitrocellulose. Antibodies used for Western blotting were: EZH2 (Cell Signalling), β-actin (AbCAM) and H3K27me3 (Upstate).
# Whole cell extracts were made in RIPA buffer (0.5% Deoxycholate, 1% IGEPAL-CA630, 0.1% sodium dodecyl sulfate, 150 mM NaCL, 50 mM Tris-8.1), lysates were cleared by centrifugation, and protein concentrations were quantified with the Pierce BCA Protein Assay Kit (Thermo). For Western blotting, 25 μg of protein extract per sample was denatured with heat and reducing agents, separated on a 4-12% acrylimide gel (BioRad) and transferred to nitrocellulose (GE Healthcare). Antibodies used for Western blotting were: EZH2 (clone D2C9; Cell Signaling; 1:200), Histone H3 (polyclonal; AbCAM ab1791; 1:2000) and H3K27me3 (polyclonal; Millipore 07-449; 1:1000) all incubated overnight at 4° C. Secondary antibody, anti-rabbit-HRP (Santa Cruz sc-2313; 1:5,000), was incubated for 1 hour at room temperature. After washing, chemi-luminescence was visualized with Western Lightning Plus-ECL (PerkinElmer) and exposure onto KODAK BioMax XAR™ film.
# [3] = system: BRG1 mutant and BRG1 wild-type cell lines; assay: Gefitinib dose response curves, 4 days; type: cell-based, human; settings: data not shown
smiles,measurement,setting,value
CC[C@H](C)n1cc(C)c2c(C(=O)NCc3c(C)cc(C)[nH]c3=O)cc(-c3ccc(N4CCNCC4)nc3)cc21 [GSK126],etoposide dose response: classes of GSK126 treated cell lines,[1]; 10 μM GSK126,same TopoII inhibitor-sensitized and -protected classes
same,EZH2 levels,[2],remained unchanged
same,H3K27me3 levels,[2],marked decrease
N.N.[Cl][Pt][Cl] [cisplatin],cisplatin IC30,"[1]; NSCLC cell lines, approximate",~5 µM
COc1cc([C@@H]2c3cc4c(cc3[C@@H](O[C@@H]3O[C@@H]5CO[C@@H](C)O[C@H]5[C@H](O)[C@H]3O)[C@H]3COC(=O)[C@H]23)OCO4)cc(OC)c1O [etoposide],IC50,"[1]; Homo sapiens, 96 h, approximate",~10 µM
same,IC50,[1]; approximate,~5 µM
COc1cc2ncnc(Nc3ccc(F)c(Cl)c3)c2cc1OCCCN1CCOCC1 [gefitinib],gefitinib sensitivity of BRG1 mutant vs BRG1 wild-type cell lines,[3],slightly more sensitive

# — patent US9895390B2, “Methods and assays for combination treatment of cancer” (CHILDREN'S MEDICAL CENTER CORPORATION, priority 2012, dated 2018)
